# According to PubChem BioAssay AID328 (DTP/NCI, 2004):
# “And” between values parts separate entries of the source, which are not always exact repeats. Identical values can stand only once. Inconclusive results and toxic doses are left out.
# Test system: BDF1 mice, P388 leukemia ip, median survival T/C
# Test: NCI In Vivo Anticancer Drug Screen. Data for tumor model P388 Leukemia (intraperitoneal) in B6D2F1 (BDF1) mice
# Conditions: endpoint: median survival time, higher = longer survival
# Method in brief: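 Vehicle-dosed animals serve as the reference; survival of compound-dosed, tumour-implanted mice is divided by it.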
compound,measurement,setting,value
COc1cccc2c1C(=O)c1c(O)c3c(c(O)c1C2=O)C[C@@](O)(C(C)=O)C[C@@H]3OC1CC(N)C(O)C(C)O1 (stereo partly specified),T/C,"dose: 0.03 mg/kg/injection, schedule: Q01DX010 (ip), vehicle: saline",108 % of control
same,T/C,"dose: 0.06 mg/kg/injection, schedule: Q## X020 (ip), vehicle: saline",108 % of control
same,T/C,"dose: 0.13 mg/kg/injection, schedule: Q01DX010 (ip), vehicle: saline",150 % of control
same,T/C,"dose: 0.13 mg/kg/injection, schedule: Q03HX024 (ip), vehicle: saline",200 % of control
same,T/C,"dose: 0.13 mg/kg/injection, schedule: Q## X020 (ip), vehicle: saline",100 % of control
same,T/C,"dose: 0.21 mg/kg/injection, schedule: Q03HX024 (ip), vehicle: saline",210 % of control
same,T/C,"dose: 0.21 mg/kg/injection, schedule: Q## X010 (ip), vehicle: saline",190 % of control
same,T/C,"dose: 0.21 mg/kg/injection, schedule: Q## X020 (ip), vehicle: saline",195 % of control
same,T/C,"dose: 0.25 mg/kg/injection, schedule: Q01DX009 (ip), vehicle: saline",208 % of control
same,T/C,"dose: 0.25 mg/kg/injection, schedule: Q01DX010 (ip), vehicle: clinical formulation",159 % of control
same,T/C,"dose: 0.36 mg/kg/injection, schedule: Q03HX024 (ip), vehicle: saline",205 % of control
same,T/C,"dose: 0.36 mg/kg/injection, schedule: Q04DX003 (ip), vehicle: saline",180 % of control
same,T/C,"dose: 0.36 mg/kg/injection, schedule: Q## X020 (ip), vehicle: saline",200 % of control
same,T/C,"dose: 0.38 mg/kg/injection, schedule: Q01DX010 (ip), vehicle: saline",189 % of control
same,T/C,"dose: 0.5 mg/kg/injection, schedule: Q01DX009 (ip), vehicle: saline",170 % of control
same,T/C,"dose: 0.5 mg/kg/injection, schedule: Q01DX010 (ip), vehicle: clinical formulation",168 % of control
same,T/C,"dose: 0.5 mg/kg/injection, schedule: Q01DX010 (ip), vehicle: water",175 % of control
same,T/C,"dose: 0.5 mg/kg/injection, schedule: Q03HX008 (ip), vehicle: water",181 % of control
same,T/C,"dose: 0.5 mg/kg/injection, schedule: Q06HX004 (ip), vehicle: water",190 % of control
same,T/C,"dose: 0.5 mg/kg/injection, schedule: Q## X020 (ip), vehicle: saline",100 % of control and 207 % of control
same,T/C,"dose: 0.6 mg/kg/injection, schedule: Q03HX024 (ip), vehicle: saline",235 % of control
same,T/C,"dose: 0.6 mg/kg/injection, schedule: Q04DX003 (ip), vehicle: saline",215 % of control
same,T/C,"dose: 0.6 mg/kg/injection, schedule: Q## X010 (ip), vehicle: saline",210 % of control
same,T/C,"dose: 0.6 mg/kg/injection, schedule: Q## X020 (ip), vehicle: saline",190 % of control
same,T/C,"dose: 0.63 mg/kg/injection, schedule: Q01DX010 (ip), vehicle: saline",195 % of control and 200 % of control
same,T/C,"dose: 0.75 mg/kg/injection, schedule: Q01DX010 (ip), vehicle: saline",205 % of control
same,T/C,"dose: 0.78 mg/kg/injection, schedule: Q04DX002 (ip), vehicle: saline",172 % of control
same,T/C,"dose: 1.0 mg/kg/injection, schedule: Q01DX009 (ip), vehicle: saline",108 % of control
same,T/C,"dose: 1.0 mg/kg/injection, schedule: Q01DX010 (ip), vehicle: clinical formulation",163 % of control
same,T/C,"dose: 1.0 mg/kg/injection, schedule: Q01DX010 (ip), vehicle: water",195 % of control
same,T/C,"dose: 1.0 mg/kg/injection, schedule: Q03HX008 (ip), vehicle: water",204 % of control
same,T/C,"dose: 1.0 mg/kg/injection, schedule: Q03HX024 (ip), vehicle: saline",115 % of control
same,T/C,"dose: 1.0 mg/kg/injection, schedule: Q04DX003 (ip), vehicle: water",115 % of control
same,T/C,"dose: 1.0 mg/kg/injection, schedule: Q06HX004 (ip), vehicle: water",190 % of control
same,T/C,"dose: 1.0 mg/kg/injection, schedule: Q## X010 (ip), vehicle: saline",200 % of control
same,T/C,"dose: 1.0 mg/kg/injection, schedule: Q## X020 (ip), vehicle: saline",287 % of control and 108 % of control and 209 % of control
same,T/C,"dose: 1.25 mg/kg/injection, schedule: Q01DX009 (ip), vehicle: water",176 % of control
same,T/C,"dose: 1.25 mg/kg/injection, schedule: Q01DX010 (ip), vehicle: saline",227 % of control and 215 % of control
same,T/C,"dose: 1.3 mg/kg/injection, schedule: Q01DX009 (ip), vehicle: clinical formulation",231 % of control
same,T/C,"dose: 1.5 mg/kg/injection, schedule: Q01DX010 (ip), vehicle: saline",210 % of control
same,T/C,"dose: 1.56 mg/kg/injection, schedule: Q01DX009 (ip), vehicle: water",157 % of control and 196 % of control
same,T/C,"dose: 1.56 mg/kg/injection, schedule: Q04DX002 (ip), vehicle: saline",209 % of control
same,T/C,"dose: 1.7 mg/kg/injection, schedule: Q04DX003 (ip), vehicle: saline",225 % of control
same,T/C,"dose: 1.7 mg/kg/injection, schedule: Q## X010 (ip), vehicle: saline",165 % of control
same,T/C,"dose: 1.7 mg/kg/injection, schedule: Q## X020 (ip), vehicle: saline",180 % of control
same,T/C,"dose: 1.8 mg/kg/injection, schedule: Q01DX009 (ip), vehicle: water",161 % of control
same,T/C,"dose: 2.0 mg/kg/injection, schedule: Q01DX009 (ip), vehicle: clinical formulation",257 % of control
same,T/C,"dose: 2.0 mg/kg/injection, schedule: Q01DX010 (ip), vehicle: clinical formulation",172 % of control
same,T/C,"dose: 2.0 mg/kg/injection, schedule: Q01DX010 (ip), vehicle: water",95 % of control
same,T/C,"dose: 2.0 mg/kg/injection, schedule: Q03HX008 (ip), vehicle: water",95 % of control
same,T/C,"dose: 2.0 mg/kg/injection, schedule: Q06HX004 (ip), vehicle: water",195 % of control
same,T/C,"dose: 2.5 mg/kg/injection, schedule: Q01DX001 (ip), vehicle: saline",109 % of control and 215 % of control
same,T/C,"dose: 2.5 mg/kg/injection, schedule: Q01DX009 (ip), vehicle: water",97 % of control
same,T/C,"dose: 2.9 mg/kg/injection, schedule: Q04DX003 (ip), vehicle: saline",200 % of control
same,T/C,"dose: 3.0 mg/kg/injection, schedule: Q01DX009 (ip), vehicle: clinical formulation",157 % of control
same,T/C,"dose: 3.0 mg/kg/injection, schedule: Q01DX009 (ip), vehicle: water",173 % of control
same,T/C,"dose: 3.0 mg/kg/injection, schedule: Q01DX010 (ip), vehicle: saline",189 % of control
same,T/C,"dose: 3.13 mg/kg/injection, schedule: Q01DX009 (ip), vehicle: water",90 % of control
same,T/C,"dose: 3.13 mg/kg/injection, schedule: Q04DX002 (ip), vehicle: saline",169 % of control and 181 % of control
same,T/C,"dose: 4.0 mg/kg/injection, schedule: Q01DX010 (ip), vehicle: clinical formulation",104 % of control
same,T/C,"dose: 4.0 mg/kg/injection, schedule: Q01DX010 (ip), vehicle: water",90 % of control
same,T/C,"dose: 4.5 mg/kg/injection, schedule: Q01DX009 (ip), vehicle: clinical formulation",100 % of control
same,T/C,"dose: 5.0 mg/kg/injection, schedule: Q01DX010 (ip), vehicle: saline",120 % of control
same,T/C,"dose: 6.25 mg/kg/injection, schedule: Q04DX002 (ip), vehicle: saline",100 % of control
same,T/C,"dose: 13.33 mg/kg/injection, schedule: Q04DX003 (ip), vehicle: water",100 % of control and 207 % of control
same,T/C,"dose: 16.0 mg/kg/injection, schedule: Q04DX009 (ip), vehicle: water",96 % of control
same,T/C,"dose: 78.0 micrograms/kg/injection, schedule: Q01DX010 (ip), vehicle: saline",165 % of control
same,T/C,"dose: 125.0 micrograms/kg/injection, schedule: Q01DX010 (ip), vehicle: clinical formulation",150 % of control
same,T/C,"dose: 156.0 micrograms/kg/injection, schedule: Q01DX010 (ip), vehicle: saline",185 % of control
same,T/C,"dose: 250.0 micrograms/kg/injection, schedule: Q01DX010 (ip), vehicle: clinical formulation",183 % of control
same,T/C,"dose: 313.0 micrograms/kg/injection, schedule: Q01DX010 (ip), vehicle: saline",185 % of control
same,T/C,"dose: 500.0 micrograms/kg/injection, schedule: Q01DX010 (ip), vehicle: clinical formulation",195 % of control
same,T/C,"dose: 625.0 micrograms/kg/injection, schedule: Q01DX010 (ip), vehicle: saline",200 % of control
same,T/C,"dose: 1300.0 micrograms/kg/injection, schedule: Q04DX003 (ip), vehicle: water",174 % of control
same,T/C,"dose: 2160.0 micrograms/kg/injection, schedule: Q04DX003 (ip), vehicle: water",162 % of control
same,T/C,"dose: 3600.0 micrograms/kg/injection, schedule: Q04DX003 (ip), vehicle: water",117 % of control
